Source: patent publication US20120225889A1, “USE OF MACROCYCLIC LACTONE DERIVATIVES FOR THE TREATMENT OF INFLAMMATORY DISORDERS” (PIRAMAL LIFE SCIENCES LIMITED, priority 2010, published 2012)
Read-outs that look alike come from different tables or passages of the source.

Experiments:
Format in all cases: cell-based
hPBMCs = assay: Lymphocyte proliferation assay (T-cell proliferation of normal hPBMCs); conditions: Homo sapiens, tritiated thymidine
From the text: The assay method was designed as in references, The Journal of Immunology, 153, 1-9, (1994), and Clinical and Diagnostic Laboratory Immunology, 7, 687-692, (2000), the disclosure of which is incorporated by reference for the teaching of the assay.
hPBMCs were obtained from healthy donors by centrifugation of heparinized venous blood over Ficoll/Hypaque solution (Histopaque-1077, Sigma, USA). Isolated hPBMCs were suspended in RPMI 1640 culture medium supplemented with 10% FBS and seeded at a density of 50,000 cells/well in a 96-well plate (Nunc, USA). The cells were incubated at 37° C., 5% CO2 for a period of 24 h. These cells were used for the lymphocyte proliferation as well as cytokine release assay.
The plated cells were treated with different concentrations of the test compound (prepared as 20 mM stock in DMSO and diluted with DMSO to achieve the following final concentrations in the assay: 100, 10, 1, 0.1, 0.01, 0.001 and 0.0001 μM) and were incubated for 30 min. The cells were then stimulated with 5 ng/mL PMA (Sigma, USA, prepared as 100 μg/mL stock in RPMI and was diluted to 5 ng/mL) and 5 μg/mL PHA (Sigma, USA, prepared as a 1 mg/mL stock in RPMI). The plates were incubated at 37° C., 5% CO2 for 48 h. The cells were treated overnight with 0.1 μCi of tritiated thymidine per well (obtained from BARC, India; prepared as stock of 1 mCi/mL) and was diluted in KRPH buffer to 10 μCi/mL and […] and was added per well to obtain a final concentration 0.1 μCi/well) and at the end of 48 h, the anti-proliferative effect of the compound was measured using the following formula: […]
Controls consisted of hPBMCs with PHA and PMA (Stimulated), hPBMCs with RPMI (Un-stimulated), hPBMCs with FK506 (positive control, Sigma, USA, prepared as 20 mM stock in DMSO and diluted with DMSO to achieve the following final concentrations in the assay: 100, 10, 1, 0.1, 0.01, 0.001 and 0.0001 μM).

IL-6 [1] = assay: Human monocyte assay (LPS-induced): IL-6; conditions: LPS stimulated human monocytes, 5 h
From the text: (§1) The assay was designed as in reference, Physiological Research, 52, 593-598, (2003), the disclosure of which is incorporated by reference for the teaching of the assay.
(§2) The objective of the assay is to determine whether compounds of the present invention—mediated inhibition of LPS-induced cytokines from monocytic THP-1 cell line translates to physiologically relevant human cells. Accordingly, the effect of compounds of the present invention on LPS—induced cytokine production from freshly isolated human monocytes was ascertained.
Peripheral blood was collected from healthy donors into potassium EDTA vacutainer tubes (BD Biosciences, USA). hPBMCs were isolated using density gradient separation (Histopaque-1077; Sigma, USA) and suspended in assay medium which is RPMI culture medium (Sigma, USA) containing 10% heat inactivated FBS (JRH Biosciences, Australia), 100 U/mL penicillin (Sigma, USA) and […] streptomycin (Sigma, USA). Monocytes in the hPBMCs were counted using a Coulter Counter following which the cells were resuspended at 2×10^5 monocytes/mL of assay medium. A cell suspension containing 2×10^4 monocytes was aliquoted per well of a 96-well plate (Nunc, USA). Subsequently, the hPBMCs were incubated for 4-5 h at 37° C., 5% CO2. During the incubation, the monocytes adhered to the bottom of 96-well plate. Following the incubation, the non-adherent lymphocytes were washed and assay medium was added to adherent monocytes. After 48 h of incubation at 37° C., 5% CO2, monocytes were pre-treated with various concentrations of test compound (prepared as 20 mM stock in DMSO; 1 μL of […] concentrated solution of test compound was dissolved in 200 μL cell suspension to achieve a final concentration of 0.03, 0.1, 0.3, 1, 3, 10, 30 and 100 μM) or vehicle (0.5% DMSO) or 10 μM dexamethasone (standard IL-6 and TNF-α inhibitor, Sigma, USA) for 30 min at 37° C., 5% CO2 and stimulated with 1 μg/mL LPS (Escherchia coli 0111:B4, Sigma, USA). The cells were then incubated for 5 h at 37° C., 5% CO2 following which supernatants were collected, stored at −70° C. and were assayed later for IL-6, and TNF-α by ELISA (OptiEIA ELISA sets, BD Biosciences, USA). The IC50 values were calculated by a nonlinear regression method using Graph Pad software (Prism 3.03).

TNF-α [2] = assay: Human monocyte assay (LPS-induced): TNF-α; conditions: LPS stimulated human monocytes, 5 h
From the text: as §1, §2
Peripheral blood was collected from healthy donors into potassium EDTA vacutainer tubes (BD Biosciences, USA). hPBMCs were isolated using density gradient separation (Histopaque-1077; Sigma, USA) and suspended in assay medium which is RPMI culture medium (Sigma, USA) containing 10% heat inactivated FBS (JRH Biosciences, Australia), 100 U/mL penicillin (Sigma, USA) and […] streptomycin (Sigma, USA). Monocytes in the hPBMCs were counted using a Coulter Counter following which the cells were resuspended at 2×10^5 monocytes/mL of assay medium. A cell suspension containing 2×10^4 monocytes was aliquoted per well of a 96-well plate (Nunc, USA). Subsequently, the hPBMCs were incubated for 4-5 h at 37° C., 5% CO2. […] The IC50 values were calculated by a nonlinear regression method using Graph Pad software (Prism 3.03).

IL-6 [3] = assay: Screening in LPS stimulated THP-1 cells: IL-6; conditions: Homo sapiens, 24 h, ELISA
Description: (§3) IL-6 (BD Biosciences, USA) production by LPS (Escherchia coli 0127:B8, Sigma, USA) in THP-1 cells (ATCC number: TIB202) was designed as in reference, Journal of Immunology, 151, 5631-5638, (1993), the disclosure of which is incorporated by reference for the teaching of the assay.
(§4) THP-1 cells were cultured in RPMI 1640 culture medium (Gibco BRL, UK) containing 100 U/mL penicillin and […] streptomycin, (100× solution, Sigma, USA) containing 10% FBS (JRH Biosciences, USA). 25,000 cells were seeded per well in 96-well plate (Nunc, USA). The cells were differentiated with PMA (Sigma, USA, prepared as 100 μg/mL stock in RPMI and was diluted to 5 ng/mL). The test compound (prepared as 20 mM stock in DMSO and diluted with DMSO to achieve the following final concentrations in the assay: 100, 10, 1, 0.1, 0.01, 0.001 and 0.0001 μM) or vehicle (0.5% DMSO) were added to the cells and the cells were incubated for 30 min at 37° C. LPS (Sigma, USA, prepared as 1 mg/mL stock in PBS) was added to achieve a final concentration of 1 μg/mL. Plates were incubated at 37° C. for 24 h at 5% CO2. Supernatants were harvested, and assayed for TNF-α and IL-6 by ELISA as described by the manufacturer (BD Biosciences, USA). Percent inhibition of cytokine release compared to the control was calculated. The IC50 values were calculated by a nonlinear regression method.

TNF-α [4] = assay: Screening in LPS stimulated THP-1 cells: TNF-α; conditions: Homo sapiens, 24 h, ELISA
Description: as §3, §4

## C=CC[C@@H]1/C=C(\C)C[C@H](C)C[C@H](OC)[C@H]2O[C@@](O)(C(=O)C(=O)N3CCCC[C@H]3C(=O)O[C@H](/C(C)=C/[C@@H]3CC[C@@H](O)[C@H](OC)C3)[C@H](C)[C@@H](O)CC1=O)[C@H](C)C[C@@H]2OC [FK506, reference compound]
hPBMCs; hPBMCs stimulated with PMA and PHA, read-out: Stimulated hPBMC's IC50 (inhibition of cell proliferation)
  IC50: < 1 nM
hPBMCs; unstimulated hPBMCs, read-out: Unstimulated hPBMC's IC50 (inhibition of cell proliferation)
  IC50: 2000 nM

## C/C=C/C(O)C(C)/C=C/C(=O)C(C)C(O)C(C)C1OC(=O)/C(OC)=C/C(C)=C/C(C)C(O)C(CC)C(O)C(C)C/C(C)=C/C=C/C1OC (stereo not drawn) [Compound of example 6, (3Z,5E,13E,15E)-18-((6E,10E)-3,9-Dihydroxy-4,8-dimethyl-5-oxododeca-6,10-dien-2-yl)-9-ethyl-8,10-dihydroxy-3,17-dimethoxy-5,7,11,13-tetramethyloxacyclooctadeca-3,5,13,15-tetraen-2-one]
IL-6 [1]
  IC50: 600 nM
TNF-α [2]
  IC50: 5000 nM
IL-6 [3]
  IC50: 100 nM
TNF-α [4]
  IC50: > 100000 nM
